Measurements reported in patent US11453841B2, “Functionalized branched alcohols as non-ionic sugar surfactants” (ExxonMobil Technology and Engineering Company, priority 2019, dated 2022).

Assay: Surface tension isotherms
Type: physicochemical
Conditions: 22° C.
Protocol: Surface tension isotherms were measured for selected functionalized branched alcohols EXXAL™ 11-Glucose-3(EO )Linker (also referred to herein as “EXXAL™ 11-EO3-Glucoside”) and EXXAL™ 11-Galactose-3(EO)Linker, as well as comparative alkoxylated alcohol glycoside n-undecanol-glucose-3(EO)Linker (also referred to herein as “Undecanol-EO3-Glucoside”). The names, chemical structures, and weight average molecular weights of these functionalized branched alcohols are as follows:
Tables 7, 8 and 9 immediately below provide surface tension isotherms for the compounds 1, 2, and 3 measured at 22° C. Specifically, Table 7 provides surface tension data of n-undecanol-glucose-3(EO)Linker, Table 8 provides surface tension data of EXXAL™ 11-Gluscose-3(EO)Linker, and Table 9 provides surface tension data of EXXAL™ 11-Galactose-3(EO)Linker.

## CCCCCCCCCCCOCCOCCOCCOC1OC(CO)C(O)C(O)C1O (stereo not drawn) [Compound 1, n-undecanol-glucose-3(EO)Linker]
Molarity 0.000125058 mol/L
  Surface Tension (γ): 41.0 mN/m
Molarity 0.000339945 mol/L
  Surface Tension (γ): 34.5 mN/m
Molarity 0.000924077 mol/L
  Surface Tension (γ): 33.2 mN/m
Molarity 0.001928806 mol/L
  Surface Tension (γ): 33.1 mN/m
Molarity 1.69248E−05 mol/L
  Surface Tension (γ): 55.6 mN/m
Molarity 2.29052E−06 mol/L
  Surface Tension (γ): 66.4 mN/m
Molarity 4.60064E−05 mol/L
  Surface Tension (γ): 48.6 mN/m
Molarity 6.22628E−06 mol/L
  Surface Tension (γ): 61.5 mN/m
Molarity 8.42635E−07 mol/L
  Surface Tension (γ): 70.2 mN/m
